Consider 17 molecules from PubChem BioAssay (NCI).

Experiment in all cases: NCI-60 cell line screen, 48 h
The test system of experiment [1] is DU-145 prostate.
Experiment [2] concerns MCF7 breast.
Experiment [3] deals with RXF 393 renal.
The subject of experiment [4] is SK-MEL-5 melanoma.
For experiment [5], the system named is MDA-MB-231 breast.
The subject of experiment [6] is EKVX NSCLC.
The test system of experiment [7] is SK-MEL-2 melanoma.
The test system of experiment [8] is CAKI-1 renal.
Experiment [9] deals with SF-268 CNS.
The subject of experiment [10] is HOP-92 NSCLC.

Structures are written as SMILES.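 Exposure lasted 48 hours, with cells grown in 96-well plates and compounds tested at five concentrations. TGI is the concentration that stops growth completely.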

Regarding `COC1OC2COC(C)(C)OC2C2OC(C)(C)OC12` (stereo not given), the TGI in [1], in experiment [2], in experiment [3], in [4], in experiment [5] and in [6] was over 100 µM each time. Further, the TGI is over 100 µM in experiment [7], 33.1 µM in [8] and over 100 µM in experiment [9].
Take `O=C(NN1C(=O)CSC1c1ccc(Cl)c(Cl)c1)c1ccncc1` (stereo not given): the TGI in experiment [3], in [4], in experiment [6], in [7], in experiment [8] and in experiment [9] was over 100 µM each time.
In the case of `Cc1cc2c(cc1Cl)SC(NNc1cnc3ccccc3n1)=NS2(=O)=O`, the TGI in experiment [1] was over 100 µM; in experiment [10], 77.2 µM; in [3], over 100 µM; in experiment [4], over 100 µM; in experiment [5], over 100 µM; in [6] it was over 100 µM. In addition, the TGI in experiment [8] and in experiment [9] was over 100 µM throughout.
As to `C=C1CC2C(=O)N(c3ccccc3)C(=O)C2CC1n1[nH]c(=O)n(Cc2ccccc2)c1=O` (stereo not given), the TGI in [10], in experiment [3], in experiment [4], in [6], in experiment [7] and in [8] was over 100 µM throughout. Moreover, in [9], the TGI is over 100 µM.
With `CCN(CC)C(=S)SS(=O)(=O)c1ccc(C)cc1`, the TGI is over 100 µM in experiment [1]; 33.4 µM in [3]; 30.4 µM in experiment [4]; over 100 µM in [5]; over 100 µM in [6]; over 100 µM in [7]. For the same molecule, the figures for the TGI in [8] and in experiment [9] were 37.3 µM and over 100 µM, respectively.
As for `Cc1ncc([N+](=O)[O-])n1CCNC(=O)CCCCn1ccnc1[N+](=O)[O-]`, the TGI in [2], in experiment [4], in experiment [5], in experiment [7], in experiment [8] and in experiment [9] was over 100 µM throughout.
Consider `COC(=O)C(=O)C(C(=O)C(=O)Nc1cc([N+](=O)[O-])ccc1C#N)c1nc2ccccc2[nH]c1=O` (stereo not given), for which the TGI in [10], in [3], in [4], in [6], in experiment [8] and in experiment [9] was over 100 µM in each case.
Take `c1ccc([P+](Cc2csnn2)(c2ccccc2)c2ccccc2)cc1`: the TGI in experiment [10], in experiment [3], in experiment [4], in experiment [6], in [7] and in experiment [8] was over 100 µM in each case. Moreover, the TGI in experiment [9] is over 100 µM.
For `CCC1(CC)C(=O)NC(=S)N=C1N`, the TGI in experiment [10], in [3], in experiment [6], in [7] and in experiment [9] was over 100 µM in each case.
Turning to `COC(=O)[C@H]1C=C[C@H](OC2OC(COC(C)=O)C(OC(C)=O)C(OC(C)=O)C2OC(C)=O)n2c(=O)n(-c3ccccc3)c(=O)n21` (stereo not given in full), the TGI in experiment [1] was 21.1 µM; in experiment [10], 3.9 µM; in [3], 3.73 µM; in [4] it was over 22.4 µM; in [5], 24.5 µM; in experiment [6] it was 7.37 µM. The TGI is 30.6 µM in [7], 2.4 µM in [8] and over 47.1 µM in experiment [9].
Consider `CN1c2ccccc2C(=O)NC12CCN(CC1COc3ccccc3O1)CC2` (stereo not given), for which the TGI in experiment [1] is over 100 µM; in experiment [2] it was over 100 µM; in experiment [10], 71.3 µM; in experiment [3], over 100 µM; in experiment [4], 41.5 µM; in experiment [6], over 100 µM. The TGI in experiment [9] is over 100 µM.
On to `CCOC(=O)c1ccc(C(=O)/C(C(=O)OC(C)(C)C)=C2\CCCN2C)n1C`, for which the TGI in experiment [1] is over 100 µM; in [2], over 100 µM; in experiment [3] it was over 100 µM; in [4], 52.9 µM; in experiment [5], over 100 µM; in [6], over 100 µM. Besides, the TGI in experiment [7], in experiment [8] and in experiment [9] was over 100 µM each time.
`O=c1c(Cc2ccccc2)c(-c2ccccc2)[nH]n1C1=NCCN1`: the TGI in experiment [2], in [10], in experiment [3], in experiment [4], in [5] and in experiment [6] was over 100 µM each time. Besides, the TGI in [7], in experiment [8] and in experiment [9] was over 100 µM each time.
Consider `CCOC(=O)/C(=C/c1ccco1)P(=O)(OCC)OCC`, for which the TGI in experiment [10], in experiment [4], in experiment [6], in experiment [7], in experiment [8] and in [9] was over 100 µM in each case.
`NC(=O)NC(=NCc1ccccc1)NCc1ccccc1`: the TGI in experiment [10], in [4], in experiment [6], in experiment [7], in experiment [8] and in experiment [9] was over 100 µM each time.
For the molecule `COc1ccc(CN2C(=O)C(=O)N(C)C2=O)c2ccccc12`, the TGI in experiment [1], in [2], in experiment [3], in experiment [4], in experiment [5] and in experiment [6] was over 10 µM each time. Besides, the TGI in experiment [7], in experiment [8] and in [9] was over 10 µM in each case.
Take `O=C1NN=C(c2c[nH]c3ccccc23)CC1NCc1ccccc1` (stereo not given): the TGI in [1], in experiment [10], in experiment [3], in experiment [4], in experiment [5] and in experiment [7] was over 100 µM in each case. The TGI in experiment [8] and in experiment [9] was over 100 µM throughout.
